Laboratory results reported in patent US10259810B2, “N-sulfonylated pyrazolo[3,4-b]pyridin-6-carboxamides and method of use” (AbbVie S.à.r.l., priority 2015, dated 2019).

What was measured:
ΔF508-CFTR [1] = target: T1, ΔF508-CFTR (Homo sapiens, UniProt P13569, DEL508-508); assay: CFTR cell surface levels using HRP-tagged ΔF508-CFTR expressing CFBE cells, intrinsic corrector capacity; assay type: cell-based; set-up: % Activation: concentration or dose not given beside the values; conditions: HRP-tagged ΔF508-CFTR expressing CFBE41o- cells, compound alone (intrinsic corrector capacity), 20 hours at 33° C.; for EC50: read-out: EC50
T1 construct: host or cells: CFBE41o-, doxycycline-inducible
T1 sequence (P13569 with tags, fused parts or gaps DEL508-508): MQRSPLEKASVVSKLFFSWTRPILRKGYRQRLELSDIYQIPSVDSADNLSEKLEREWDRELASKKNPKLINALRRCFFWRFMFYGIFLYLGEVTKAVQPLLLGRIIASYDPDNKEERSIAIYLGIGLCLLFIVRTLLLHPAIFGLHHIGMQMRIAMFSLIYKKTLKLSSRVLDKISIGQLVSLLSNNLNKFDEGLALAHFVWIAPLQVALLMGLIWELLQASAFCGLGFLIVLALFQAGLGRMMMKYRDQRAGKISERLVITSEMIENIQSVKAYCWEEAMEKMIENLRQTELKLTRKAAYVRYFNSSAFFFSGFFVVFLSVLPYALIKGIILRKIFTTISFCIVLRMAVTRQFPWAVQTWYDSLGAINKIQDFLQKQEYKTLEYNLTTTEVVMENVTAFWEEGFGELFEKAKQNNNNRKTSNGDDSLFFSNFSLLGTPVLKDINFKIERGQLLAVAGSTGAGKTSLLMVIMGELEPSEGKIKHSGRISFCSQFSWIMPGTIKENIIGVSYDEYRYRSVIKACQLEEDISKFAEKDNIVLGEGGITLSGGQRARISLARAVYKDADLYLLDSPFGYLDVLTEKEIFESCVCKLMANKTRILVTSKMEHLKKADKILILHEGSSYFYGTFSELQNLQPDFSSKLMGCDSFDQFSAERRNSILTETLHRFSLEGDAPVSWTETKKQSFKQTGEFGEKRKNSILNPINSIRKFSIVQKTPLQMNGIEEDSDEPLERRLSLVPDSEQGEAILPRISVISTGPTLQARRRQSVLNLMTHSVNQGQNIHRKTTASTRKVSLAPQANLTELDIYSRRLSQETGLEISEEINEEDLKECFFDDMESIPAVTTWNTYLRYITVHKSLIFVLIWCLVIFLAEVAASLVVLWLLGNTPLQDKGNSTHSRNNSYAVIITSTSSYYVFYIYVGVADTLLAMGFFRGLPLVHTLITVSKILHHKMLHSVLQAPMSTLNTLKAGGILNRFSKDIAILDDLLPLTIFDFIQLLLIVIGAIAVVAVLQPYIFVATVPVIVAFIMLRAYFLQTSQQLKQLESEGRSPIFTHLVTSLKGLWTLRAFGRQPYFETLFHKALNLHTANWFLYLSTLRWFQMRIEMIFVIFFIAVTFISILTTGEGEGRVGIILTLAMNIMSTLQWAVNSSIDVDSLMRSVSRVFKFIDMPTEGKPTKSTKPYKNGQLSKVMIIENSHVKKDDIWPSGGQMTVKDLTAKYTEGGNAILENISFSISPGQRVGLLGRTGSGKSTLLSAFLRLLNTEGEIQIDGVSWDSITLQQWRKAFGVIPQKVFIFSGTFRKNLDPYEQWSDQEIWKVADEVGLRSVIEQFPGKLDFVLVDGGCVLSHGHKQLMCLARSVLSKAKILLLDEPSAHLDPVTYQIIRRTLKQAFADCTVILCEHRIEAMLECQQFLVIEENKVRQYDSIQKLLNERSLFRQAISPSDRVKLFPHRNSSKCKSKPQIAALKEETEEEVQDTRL
Description: Measuring CFTR Cell Surface Levels Using HRP-Tagged ΔF508-CFTR Expressing CFBE Cells
The HRP-tagged ΔF508-CFTR cell assay measures the expression of CFTR-ΔF508 at the plasma membrane. CFTR-ΔF508 has a folding defect leading to absence of protein at the plasma membrane. This assay is used to evaluate the capacity of compounds to increase the expression of CFTR-ΔF508 at the plasma membrane. The CFTR-ΔF508 is tagged with HRP (horse radish peroxidase enzyme) within the ECL4 (Extracellular loop 4) of CFTR (Phuan, P.-W. et al. Synergy-based small-molecule screen using a human lung epithelial cell line yields ΔF508-CFTR correctors that augment VX-809 maximal efficacy. Mol. Pharmacol. 86, 42-51 (2014)). When HRP-tagged ΔF508-CFTR is present at the plasma membrane, the HRP enzyme activity can be measured. The amount of CFTR-ΔF508 that can be rescued to the plasma membrane is correlated with the amount of functional enzyme that can be measured.
There are several ways to measure the capacity of compounds to rescue CFTR-ΔF508 to the plasma membrane; either compounds are evaluated on their own and the impact on plasma membrane levels is measured or compounds are evaluated in combination with a co-corrector, i.e. a compound that rescues CFTR-ΔF508 to the plasma membrane but rescue can be enhanced by addition of compounds due to a complementary mode of action.
Activity of Compounds for their Intrinsic Corrector Capacity:
For this purpose doxycycline-inducible ΔF508-CFTR-HRP expressing CFBE4lo− cells (obtained from Gergely Lukacs, McGill University) were maintained in MEM (Gibco; 31095) supplemented with 10% fetal bovine serum (Hyclone; SV30160.03) under puromycin (3 μg/mL) and G418 selection (0.2 mg/mL). For compound testing, cells were seeded at 4000 cells/well in white 384-well plates (Greiner; 781080) in 50 μL medium containing 0.5 μg/mL doxycycline and incubated for 68 hours at 37° C., 5% CO2. On day four, […] compounds diluted in PBS were added to the plates at a final DMSO concentration of 0.1%. All compound plates contained negative controls (DMSO) and positive controls ([…] corrector, 3-[(2R,4R)-4-({[1-(2,2-difluoro-1,3-benzodioxol-5-yl)cyclopropyl]carbonyl}amino)-7-methoxy-3,4-dihydro-2H-chromen-2-yl]benzoic acid). Cell plates were incubated at 33° C., 5% CO2 for 20 hours. On day five, the cells were washed five times with phosphate-buffered saline, and HRP activity was assayed by the addition of 50 μL/well of HRP substrate (SuperSignal™ West Pico Chemiluminescent Substrate, Thermo Scientific; 34080). After incubation for 15 minutes in the dark, chemiluminescence was measured using a plate reader (EnVision®, Perkin Elmer). Raw data were normalized to percentage activity values using the equation: 100×(Sample−Negative control)/(Positive control−Negative Control).

ΔF508-CFTR [2] = target: T1, ΔF508-CFTR; assay: CFTR cell surface levels using HRP-tagged ΔF508-CFTR expressing CFBE cells, in the presence of a co-corrector; assay type: cell-based; conditions: HRP-tagged ΔF508-CFTR CFBE cells, in the presence of 3 μM co-corrector; for EC50: read-out: EC50
Summary of the method: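 Chemiluminescent read-out of surface HRP (15 min, dark) after PBS washes. Activity is normalized as 100×(sample−DMSO)/(3 μM co-corrector alone−DMSO).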

Row | SMILES | % Activation (ΔF508-CFTR [1]) [%] | EC50 (ΔF508-CFTR [1]) [nM] | % Activation (ΔF508-CFTR [2]) [%] | EC50 (ΔF508-CFTR [2]) [nM]
1 | C[C@H](C1CCN(c2cc(C(=O)NS(=O)(=O)N(C)C)nc3c2c(C2CCC2)nn3-c2ccc(F)cc2)CC1)N1CCOCC1 (single isomer, unassigned) [Compound 479] | 305.7 | 197 | 524.1 | 109
2 | COCC1CCN(c2cc(C(=O)NS(=O)(=O)CCl)nc3c2c(C2CCC2)nn3-c2ccccc2)CC1 [AC07] | 268.5 | 139 | 466.9 | 76.6
3 | Cc1nn(-c2ccccc2)c2nc(C(=O)NS(=O)(=O)c3ccccc3)cc(-c3ccc(N4CCOCC4)cc3)c12 [Compound 2, N-(benzenesulfonyl)-3-methyl-4-[4-(morpholin-4-yl)phenyl]-1-phenyl-1H-pyrazolo[3,4-b]pyridine-6-carboxamide] | 226.75 | 1870 | 431.5 | 1120
4 | Cc1nn(-c2ccccc2)c2nc(C(=O)NS(=O)(=O)C3CC3)cc(-c3ccc(N4CCOCC4)cc3)c12 [Compound 4, N-(cyclopropanesulfonyl)-3-methyl-4-[4-(morpholin-4-yl)phenyl]-1-phenyl-1H-pyrazolo[3,4-b]pyridine-6-carboxamide] | 246.7 | 838 | 405.8 | 298
5 | Cc1nn(-c2cccc(OC(F)(F)F)c2)c2nc(C(=O)NS(C)(=O)=O)cc(-c3ccc(N4CCOCC4)cc3)c12 [Compound 6, N-(methanesulfonyl)-3-methyl-4-[4-(morpholin-4-yl)phenyl]-1-[3-(trifluoromethoxy)phenyl]-1H-pyrazolo[3,4-b]pyridine-6-carboxamide] | 232.1 | 808 | 387.1 | 511
6 | CC(C)c1nn(-c2ccccc2)c2nc(C(=O)NS(C)(=O)=O)cc(-c3ccc(N(C)C)cc3)c12 [Compound 7, 4-[4-(dimethylamino)phenyl]-N-(methanesulfonyl)-1-phenyl-3-(propan-2-yl)-1H-pyrazolo[3,4-b]pyridine-6-carboxamide] | 245 | 636 | 420.63 | 554
7 | Cc1nn(-c2cccc(C(F)(F)F)c2)c2nc(C(=O)NS(C)(=O)=O)cc(-c3ccc(N4CCOCC4)cc3)c12 [Compound 8, N-(methanesulfonyl)-3-methyl-4-[4-(morpholin-4-yl)phenyl]-1-[3-(trifluoromethyl)phenyl]-1H-pyrazolo[3,4-b]pyridine-6-carboxamide] | 270.6 | 900 | 441.85 | 854
8 | CC(C)c1nn(C2CCCCC2)c2nc(C(=O)NS(C)(=O)=O)cc(-c3cnc(N(C)C)nc3)c12 [Compound 9, 1-cyclohexyl-4-[2-(dimethylamino)pyrimidin-5-yl]-N-(methanesulfonyl)-3-(propan-2-yl)-1H-pyrazolo[3,4-b]pyridine-6-carboxamide] | 143.05 | 786 | 335 | 505
9 | CC(C)(C)c1nn(C2CCCC2)c2nc(C(=O)NS(C)(=O)=O)cc(-c3ccc(N4CCOCC4)nc3)c12 [Compound 12, 3-tert-butyl-1-cyclopentyl-N-(methanesulfonyl)-4-[6-(morpholin-4-yl)pyridin-3-yl]-1H-pyrazolo[3,4-b]pyridine-6-carboxamide] | 161.15 | 1070 | 364.15 | 714
10 | COc1ccc(-c2cc(C(=O)NS(C)(=O)=O)nc3c2c(C)nn3-c2ccccc2)cc1 [Compound 14, N-(methanesulfonyl)-4-(4-methoxyphenyl)-3-methyl-1-phenyl-1H-pyrazolo[3,4-b]pyridine-6-carboxamide] | 148.9 | 1430 | 335.6 | 1370
11 | CCS(=O)(=O)NC(=O)c1cc(-c2ccc(OC)cc2)c2c(C)nn(-c3ccccc3)c2n1 [Compound 15, N-(ethanesulfonyl)-4-(4-methoxyphenyl)-3-methyl-1-phenyl-1H-pyrazolo[3,4-b]pyridine-6-carboxamide] | 151.65 | 1190 | 346.15 | 852
12 | CC(C)c1nn(-c2cccc(N3CCCC3)c2)c2nc(C(=O)NS(C)(=O)=O)cc(-c3ccc(N4CCOCC4)cc3)c12 [Compound 16, N-(methanesulfonyl)-4-[4-(morpholin-4-yl)phenyl]-3-(propan-2-yl)-1-[3-(pyrrolidin-1-yl)phenyl]-1H-pyrazolo[3,4-b]pyridine-6-carboxamide] | 469.75 | 543 | 649.9 | 459
13 | COc1ccc(-n2nc(C(C)C)c3c(-c4ccc(N(C)C)cc4)cc(C(=O)NS(C)(=O)=O)nc32)cn1 [Compound 17, 4-[4-(dimethylamino)phenyl]-N-(methanesulfonyl)-1-(6-methoxypyridin-3-yl)-3-(propan-2-yl)-1H-pyrazolo[3,4-b]pyridine-6-carboxamide] | 140.75 | 1230 | 320 | 1120
14 | COc1ccc(-c2cc(C(=O)NS(C)(=O)=O)nc3c2c(C)nn3-c2ccc(C)c(Cl)c2)cc1 [Compound 18, 1-(3-chloro-4-methylphenyl)-N-(methanesulfonyl)-4-(4-methoxyphenyl)-3-methyl-1H-pyrazolo[3,4-b]pyridine-6-carboxamide] | 64.675 | 2270 | 217.8 | 1110
15 | CCS(=O)(=O)NC(=O)c1cc(N2CCCCC2)c2c(C)nn(-c3ccccc3)c2n1 [Compound 19, N-(ethanesulfonyl)-3-methyl-1-phenyl-4-(piperidin-1-yl)-1H-pyrazolo[3,4-b]pyridine-6-carboxamide] | 140.85 | 2650 | 304.05 | 1630
16 | CC(C)c1nn(-c2ccccc2)c2nc(C(=O)NS(C)(=O)=O)cc(-c3cnc(N4CCOCC4)nc3)c12 [Compound 20, N-(methanesulfonyl)-4-[2-(morpholin-4-yl)pyrimidin-5-yl]-1-phenyl-3-(propan-2-yl)-1H-pyrazolo[3,4-b]pyridine-6-carboxamide] | 210.3 | 669 | 417.5 | 546
17 | Cc1nn(-c2ccc(F)cc2F)c2nc(C(=O)NS(C)(=O)=O)cc(-c3ccc(N4CCOCC4)cc3)c12 [Compound 21, 1-(2,4-difluorophenyl)-N-(methanesulfonyl)-3-methyl-4-[4-(morpholin-4-yl)phenyl]-1H-pyrazolo[3,4-b]pyridine-6-carboxamide] | 264.25 | 685 | 440.1 | 525
18 | CC(C)c1nn(C2CCCCC2)c2nc(C(=O)NS(C)(=O)=O)cc(-c3ccc(N(C)C)nc3)c12 [Compound 22, 1-cyclohexyl-4-[6-(dimethylamino)pyridin-3-yl]-N-(methanesulfonyl)-3-(propan-2-yl)-1H-pyrazolo[3,4-b]pyridine-6-carboxamide] | 161.5 | 732 | 371.55 | 503
19 | CN1CCC2(CC1)CCN(c1cc(C(=O)NS(=O)(=O)N3CCOCC3)nc3c1c(C1CCC1)nn3-c1ccc(F)cc1)CC2 [Compound 685, 3-cyclobutyl-1-(4-fluorophenyl)-4-(9-methyl-3,9-diazaspiro[5.5]undecan-3-yl)-N-(morpholine-4-sulfonyl)-1H-pyrazolo[3,4-b]pyridine-6-carboxamide] | 144.3 | 770 | – | –
